For assay [1], the system named is C5a induced human PMN chemotaxis. The assay can be described thus: C5a induced chemotaxis of human PMNs (microchamber assay). The format is cell-based. To be noted: for inhibitory activity on C5a: compounds lacking the additional hydrogen bond acceptor group; for inhibition at 0.1 µM / inhibition at 0.01 µM: Homo sapiens, read-out: % inhibition C5a induced PMN migration; for inhibition at 0.1 µM: drug concentration: 10^−7 M (footnote a); for inhibition at 0.01 µM: drug concentration: 10^−8 M (footnote b). The procedure:
The compounds of the invention of formula (I) were evaluated in vitro for their ability to inhibit chemotaxis of polymorphonucleate leukocytes (hereinafter referred to as PMNs) and monocytes induced by the fractions of the complement C5a and C5a-desArg. For this purpose, to isolate the PMNs from heparinized human blood, taken from healthy adult volunteers, mononucleates were removed by means of sedimentation on dextran (according to the procedure disclosed by W. J. Ming et al., J. Immunol., 138, 1469, 1987) and red blood cells by a hypotonic solution. The cell vitality was calculated by exclusion with Trypan blue, whilst the ratio of the circulating polymorphonucleates was estimated on the cytocentrifugate after staining with Diff Quick.
Human recombinant fractions C5a and C5a-desArg (Sigma) were used as stimulating agents in the chemotaxis experiments, giving practically identical results.
The lyophilized C5a was dissolved in a volume of HBSS containing 0.2% bovin serum albumin BSA so thus to obtain a stock solution having a concentration of 10^−5 M to be diluted in HBSS to a concentration of 10^−9 M, for the chemotaxis assays.
In the chemotaxis experiments, the PMNs were incubated with the compounds of the invention of formula (I) for 15′ at 37° C. in an atmosphere containing 5% CO2. The chemotactic activity of the C5a was evaluated on human circulating polymorphonucleates (PMNs) resuspended in HBSS at a concentration of 1.5×10^6 PMNs per mL.
During the chemotaxis assay (according to W. Falket et al., J. Immunol. Methods, 33, 239, 1980) PVP-free filters with a porosity of 5 μm and microchambers suitable for replication were used.
The compounds of the invention in formula (I) were evaluated at a concentration ranging between 10^−7 and 10^−10 M; for this purpose they were added, at the same concentration, both to the lower pores and the upper pores of the microchamber. The wells in the lower part contain the solution of C5a or the simple carrier, those in the upper part contain the suspension of PMNs.
Inhibition of C5a-induced chemotactic activity by the individual compounds of the invention of formula (I) was evaluated by incubating the microchamber for the chemotaxis for 60 min at 37° C. in an atmosphere containing 5% CO2.
By way of example, the inhibition data of the chemotaxis of PMN (concentration range between 10^−7 and 10^−8 M) of some representative compounds of the invention are reported in Table 2.

For assay [2], the system named is CXCL8 induced human PMN chemotaxis. The assay can be described thus: IL-8 (CXCL8) induced PMN chemotaxis. The format is cell-based. Conditions: drug concentration 10^−8M, Table 1.
Assay [3] relates to C5a induced human PMN chemotaxis. Conditions: previously reported; cited from earlier work.
Assay [4] shares this test system. The assay can be described thus: C5a induced chemotaxis of human PMNs (microchamber assay). It counts as cell-based. Conditions: for inhibitory activity on C5a induced PMN chemotaxis at high drug concentration: c=10^−6M; for C5a (10^−6M): drug concentration 10^−6M, PMN chemotaxis, Table 1, n.a. = not active.

The text below walks through data of patent US7939521B2, “2-arylpropionic acid derivatives and pharmaceutical compositions containing them” (DompePHA.R.MA S.p.A., priority 2004, dated 2011).

In the case of `CC(C)c1cccc([C@@H](C)C(N)=O)c1` [(R)-2-(3-isopropylphenyl)propionamide, reference compound], in assay [1], the “inhibitory activity on C5a” value is reported as “do not exhibit any inhibitory activity”. Further, the “IL-8 (10^−8M)” value in assay [2] worked out at 60 ± 5.

On to `C[C@@H](C(N)=O)c1cccc(Nc2ccccn2)c1` [Example 13, (R)-2-[3-(pyridin-2-ylamino)phenyl]propionamide], for which the inhibition at 0.1 µM in assay [1] came out at 38 ± 3%.

Turning to `C[C@@H](C(N)=O)c1cccc(-c2ccco2)c1` [Example 15], the inhibition at 0.1 µM in assay [1] came out at 41 ± 7%.

Consider `C[C@@H](C(N)=O)c1cccc(-c2ncco2)c1` [Example 14], for which, in assay [1], the inhibition at 0.1 µM came out at 63 ± 9%.

Take `C[C@@H](C(N)=O)c1cccc(C(=O)c2ccco2)c1` [Example 3]: the inhibition at 0.1 µM in assay [1] was found to be 65 ± 6%.

With `C[C@@H](C(N)=O)c1cccc(C(=O)c2cc3ccccc3o2)c1` [Example 4, (R)-2-[3-(2-benzofuran-2-carbonyl)phenyl]propionamide], in assay [1], the inhibition at 0.01 µM is 55 ± 7%.

For the molecule `C[C@@H](C(N)=O)c1ccc2c(c1)NC(=O)CC2` [Example 16, (R)-2-(oxo-1,2,3,4-tetrahydroquinolin-7-yl)propionamide], the inhibition at 0.01 µM in assay [1] worked out at 45 ± 10%.

Turning to `C[C@@H](C(=O)NS(C)(=O)=O)c1cccc(C(=O)c2cccs2)c1` [Example 23], the inhibition at 0.1 µM in assay [1] amounted to 37 ± 11%.

With `C[C@@H](C(N)=O)c1cccc(C(=O)Nc2ncccc2Cl)c1` [Example 9, 3-((R)-1-carbamoylethyl)-N-(3-chloropyridin-2-yl)benzamide], in assay [1], the inhibition at 0.1 µM was 40 ± 2%.

`C[C@@H](C(=O)NS(C)(=O)=O)c1cccc(C(=O)c2ncco2)c1` [Example 25]: the inhibition at 0.1 µM in assay [1] was 38 ± 8%.

Regarding `C[C@@H](C(=O)NCC(=O)O)c1cccc(C(=O)c2ccco2)c1` [Example 34], the inhibition at 0.1 µM in assay [1] amounted to 51 ± 7%.

Turning to `C[C@@H](C(=O)Nc1nccs1)c1cccc(C(=O)c2ccco2)c1` [Example 27, (R)-2-[3-(furan-2-carbonyl)phenyl]-N-(2H-thiazol-2-yl)propionamide], the inhibition at 0.01 µM in assay [1] stood at 60 ± 5%.

Consider `C[C@@H](C(N)=O)c1cccc(C(=O)C2CCCC2)c1` [Example 2, (R)-2-[3-(cyclopentanecarbonyl)phenyl]propionamide], for which, in assay [1], the inhibition at 0.1 µM turned out to be 59 ± 16%.

For the molecule `CC(C)C(=O)c1cccc([C@@H](C)C(N)=O)c1` [Example 1, (R)-2-[3-(isobutyryl)phenyl]propionamide], the inhibition at 0.1 µM in assay [1] stood at 50 ± 7%.

As to `C[C@@H](C(=O)NO)c1cccc(C(=O)c2ccco2)c1` [Example 31, (R)-2-[3-(furan-2-carbonyl)phenyl]-N-hydroxypropionamide], the inhibition at 0.01 µM in assay [1] is 70 ± 5%.

As to `C[C@@H](C(N)=O)c1cccc(C(=O)Nc2c(Cl)cccc2Cl)c1` [Example 7, 3-((R)-1-carbamoylethyl)-N-(2,6-dichlorophenyl)benzamide], the inhibition at 0.1 µM in assay [1] came to 57 ± 8%.

With `Cc1ccc(C(=O)c2cccc([C@@H](C)C(=O)NS(C)(=O)=O)c2)o1` [Example 22], the inhibition at 0.01 µM in assay [1] was 53 ± 6%.

On to `C[C@@H](C(=O)NS(C)(=O)=O)c1cccc(C(=O)c2cc3ccccc3o2)c1` [Example 24], for which the “% inhibition C5a induced PMN migration” value in assay [1] (drug concentration not marked) worked out at 53 ± 5%.

On to `CC(=O)Nc1cccc(C(C)C(N)=O)c1` (stereo not drawn) [Example 18, 2-(3-acetylamino)phenyl propionamide], for which the inhibition at 0.1 µM in assay [1] was 83 ± 2%.

For the molecule `C[C@@H](C(=O)Nc1ccccn1)c1cccc(C(=O)C2CCCC2)c1` [Example 30, (R)-2-(3-cyclopentanecarbonylphenyl)-N-pyrid-2-ylpropionamide], the inhibition at 0.01 µM in assay [1] was found to be 51 ± 5%.

In the case of `CC(C)Cc1ccc([C@@H](C)C(=O)NS(C)(=O)=O)cc1` [N-[(R)-2-(4-isobutylphenyl)propionyl]methanesulfonamide, reference compound], in assay [1], the “inhibitory activity on C5a” value is reported as “do not exhibit any inhibitory activity”. In addition, the “IL-8 (10^−8M)” value in assay [2] worked out at 65 ± 5.

For the molecule `C[C@@H](C(=O)Nc1nc(C(F)(F)F)cs1)c1cccc(C(=O)c2ccco2)c1` [Example 28, (R)-2-[3-(furan-2-carbonyl)phenyl]-N-(4-trifluoromethyl-2H-thiazol-2-yl)propionamide], the inhibition at 0.01 µM in assay [1] turned out to be 49 ± 9%.

In the case of `C[C@@H](C(=O)Nc1nc(C(F)(F)F)cs1)c1cccc(C(=O)c2cc3ccccc3o2)c1` [Example 29, (R)-2-[3-(benzofuran-2-carbonyl)phenyl]-N-(4-trifluoromethyl-2H-thiazol-2-yl)propionamide], in assay [1], the inhibition at 0.1 µM came to 40 ± 12%.

Turning to `C[C@@H](C(N)=O)c1cccc(C(=O)c2ncco2)c1` [Example 6, (R)-2-[3-(1,3-oxazol-2-ylcarbonyl)phenyl]propionamide], the inhibition at 0.01 µM in assay [1] was found to be 26 ± 6%.

With `C[C@@H](C(=O)NO)c1cccc(C(=O)c2nccs2)c1` [Example 32, (R)-2-[3-(thiazole-2-carbonyl)phenyl]-N-hydroxypropionamide], the inhibition at 0.01 µM in assay [1] amounted to 30 ± 2%.

`C[C@@H](C(=O)NS(C)(=O)=O)c1cccc(C(=O)c2ccco2)c1` [Example 21]: the inhibition at 0.01 µM in assay [1] came out at 61 ± 15%.

With `Cc1cccc(C)c1NC(=O)c1cccc([C@@H](C)C(N)=O)c1` [Example 8, 3-((R)-1-carbamoylethyl)-N-(2,6-dimethylphenyl)benzamide], in assay [1], the inhibition at 0.1 µM came out at 65 ± 10%.

In the case of `C[C@@H](C(=O)Nc1ccccn1)c1cccc(C(=O)c2ccco2)c1` [Example 26, (R)-2-[3-(furan-2-carbonyl)phenyl]-N-pyrid-2-yl propionamide], in assay [1], the inhibition at 0.01 µM came to 45 ± 9%.

As for `COc1ccccc1Oc1cccc([C@@H](C)C(N)=O)c1` [Example 10, (R)-2-[3-(2-methoxyphenoxy)phenyl]propionamide], the inhibition at 0.01 µM in assay [1] stood at 55 ± 6%.

Take `CC(NC(=O)[C@H](C)c1cccc(C(=O)c2ccco2)c1)C(=O)O` (stereo partly drawn) [Example 33, 2-{(R)-2-[3-(furan-2-carbonyl)phenyl]propionylamino}propionic acid]: the inhibition at 0.1 µM in assay [1] was found to be 40 ± 5%.

Regarding `C[C@@H](C(N)=O)c1cccc(S(=O)(=O)c2ccccc2)c1` [Example 17, (R)-2-(3-benzenesulfonylphenyl)propionamide], in assay [1], the inhibition at 0.1 µM turned out to be 54 ± 7%.

As to `COc1ccccc1Nc1cccc([C@@H](C)C(N)=O)c1` [Example 12, (R)-2-[3-(2-methoxyphenylamino)phenyl]propionamide], the inhibition at 0.1 µM in assay [1] was found to be 60 ± 8%.

On to `C[C@@H](C(N)=O)c1cccc(C(=O)c2nccs2)c1` [Example 5, (R)-2-[3-(thiazole-2-ylcarbonyl)phenyl]propionamide], for which the inhibition at 0.01 µM in assay [1] is 31 ± 7%.

With `C[C@@H](C(N)=O)c1cccc(Nc2ccccc2Cl)c1` [Example 11, (R)-2-[3-(2-chlorophenylamino)phenyl]propionamide], the inhibition at 0.1 µM in assay [1] was 42 ± 5%.

Consider `C[C@@H](C(N)=O)c1cccc(C(=O)c2ccccc2)c1` [(R)-2-(3-benzoylphenyl)propionamide], for which, in assay [2], the “IL-8 (10^−8M)” value is 37 ± 7. Further, in assay [3], the “activity on the C5a induced PMN chemotaxis” value is given as “negligible activity”. Moreover, in assay [4], the “inhibitory activity on C5a induced PMN chemotaxis at high drug concentration” value is recorded as “moderate inhibitory activity” and the “C5a (10^−6M)” value is reported as 30 ± 2.

As for `C[C@@H](C(=O)NS(C)(=O)=O)c1cccc(C(=O)c2ccccc2)c1` [N-[(R)-2-(3-benzoylphenyl)propionyl]methanesulfonamide], the “IL-8 (10^−8M)” value in assay [2] is on record as 38 ± 5. The “activity on the C5a induced PMN chemotaxis” value in assay [3] is given as “negligible activity”. For the same molecule, in assay [4], the “inhibitory activity on C5a induced PMN chemotaxis at high drug concentration” value is “moderate inhibitory activity” and the “C5a (10^−6M)” value was determined as 20 ± 5.

For `CC(C)Cc1ccc([C@@H](C)C(N)=O)cc1` [(R)-2-(4-isobutylphenyl)propionamide, reference compound], the “inhibitory activity on C5a” value in assay [1] is “do not exhibit any inhibitory activity”. Besides, the “IL-8 (10^−8M)” value in assay [2] is 57 ± 12.

As for `CC(C(N)=O)c1cccc(NC(=O)c2ccccc2)c1` (stereo not drawn) [Example 19, 2-(3-benzoylamino)phenyl propionamide], the inhibition at 0.1 µM in assay [1] was determined as 34 ± 11%.

Regarding `C[C@@H](C(=O)NS(C)(=O)=O)c1cccc(C(=O)C2CCCC2)c1` [Example 20, N—[(R)-2-(3-cyclopentanecarbonylphenyl)propionyl]methanesulfonamide], in assay [1], the inhibition at 0.1 µM was determined as 22 ± 2%.
